Source: US20260285853A1, “COMPOUNDS AND METHODS FOR MODULATING SPLICING” (REMIX THERAPEUTICS INC., priority 2023, published 2026)

What was measured:
Type in all cases: cell-based
[1] = system: SH-SY5Y (human neuroblastoma) cells; assay: Cell viability, Cell Titer Glo 2.0 assay; conditions: read-out: Viability SHSY5Y.3 GI50
Outline: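 SH-SY5Y cells were exposed to serially diluted compounds in IMDM with 10% FBS and 0.1% DMSO for 72 hours at 37° C., 5% CO2. Viability was measured by CellTiter-Glo 2.0 luminescence, with medium-only wells as blank.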

MYB mRNA [2] = assay: Gene panel canonical junction qPCR assay, decrease in CJ mRNA, Table 3; conditions: decrease in canonical junction (CJ) mRNA, gene panel qPCR, Table 3
Outline: (§1)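 Canonical exon-junction (CJ) transcript measured by 5′ nuclease RT-qPCR, normalized to GAPDH, GUSB or PPIA and to DMSO control (2^(−ΔΔCt)). A673 or K562 cells treated 24 h at 37° C with an 11-point 3-fold dilution series, top 10 uM, DMSO ≤0.25%. IC50 from 4-parameter logistic fit of percentage CJ decrease.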

SMN2 mRNA = assay: as above; conditions: decrease in canonical junction (CJ) mRNA, gene panel qPCR, Table 3
Outline: as §1

HTT mRNA [3] = assay: as above; conditions: decrease in canonical junction (CJ) mRNA, gene panel qPCR, Table 3
Outline: as §1

HTT mRNA [4] = assay: Splicing RT-qPCR assay (THP), Table 2A; conditions: Table 2A (THP); for AC50: AJ mRNA increase, read-out: HTT AJ (increase in alternative junction mRNA, AC50); for IC50: CJ mRNA decrease, read-out: HTT CJ (decrease in canonical junction mRNA, IC50)
MYB mRNA [5] = assay: Splicing RT-qPCR assay (THP), Table 2A; conditions: Table 2A (THP); for AC50: AJ mRNA increase, read-out: MYB AJ (increase in alternative junction mRNA, AC50); for IC50: CJ mRNA decrease, read-out: MYB CJ (decrease in canonical junction mRNA, IC50)

| SMILES | GI50 [1] | IC50 (MYB mRNA [2]) | IC50 (SMN2 mRNA) | IC50 (HTT mRNA [3]) | AC50 (HTT mRNA [4]) | IC50 (HTT mRNA [4]) | AC50 (MYB mRNA [5]) | IC50 (MYB mRNA [5]) |
| --- | --- | --- | --- | --- | --- | --- | --- | --- |
| CO[C@H]1C[C@H](N[C@H]2CCN(c3ccc(C(=O)Nc4cc(F)c5nc(C)cn5c4)c4nn(C)cc34)C2)C1 [Compound 275, N-(8-fluoro-2-methylimidazo[1,2-a]pyridin-6-yl)-4-((S)-3-(((1r,3S)-3-methoxycyclobutyl)amino)pyrrolidin-1-yl)-2-methyl-2H-indazole-7-carboxamide] | 1000 to 10000 nM | 100 to 1000 nM | < 100 nM | 1 to 10 µM | 1 to 10 µM | 1 to 10 µM | 100 to 1000 nM | 100 to 1000 nM |
| CO[C@H]1C[C@@H](N[C@H]2CCN(c3ccc(C(=O)Nc4cc(F)c5nc(C)cn5c4)c4nn(C)cc34)C2)C1 [Compound 277, N-(8-fluoro-2-methylimidazo[1,2-a]pyridin-6-yl)-4-((S)-3-(((1s,3R)-3-methoxy-cyclobutyl)amino)pyrrolidin-1-yl)-2-methyl-2H-indazole-7-carboxamide] | 1000 to 10000 nM | 100 to 1000 nM | < 100 nM | 1 to 10 µM | 1 to 10 µM | 1 to 10 µM | 100 to 1000 nM | 100 to 1000 nM |
| Cc1cn2cc(NS(=O)(=O)c3ccc(N4C[C@@H](C)N[C@@H](C)C4)c4cn(C)nc34)cc(F)c2n1 [Compound 279] | > 10000 nM | > 10000 nM | > 10000 nM | > 10 µM | > 10 µM | > 10 µM | > 10000 nM | > 10000 nM |
| CCNC1CCN(c2ccc(C(=O)Nc3cc(F)c4nc(COC)cn4c3)c3nn(C)cc23)CC1 [Compound 284, 4-[4-(ethylamino)-1-piperidyl]-N-[8-fluoro-2-(methoxymethyl)imidazo[1,2-a]pyridin-6-yl]-2-methyl-indazole-7-carboxamide] | > 10000 nM | 1000 to 10000 nM | 100 to 1000 nM | 1 to 10 µM | > 10 µM | > 10 µM | 1000 to 10000 nM | > 10000 nM |
| COCCN[C@@H]1CCN(c2cc(O)c(C(=O)Nc3cc(F)c4nc(C)cn4c3)c3nn(C)cc23)C1 [Compound 285, N-(8-fluoro-2-methyl-imidazo[1,2-a]pyridin-6-yl)-6-hydroxy-4-[(3R)-3-(2-methoxyethylamino)pyrrolidin-1-yl]-2-methyl-indazole-7-carboxamide] | 1000 to 10000 nM | < 100 nM | < 100 nM | > 10 µM | > 10 µM | > 10 µM | < 100 nM | < 100 nM |
| Cc1cn2cc(NC(=O)c3c(O)cc(N4CC[C@@H](NC5CC5)C4)c4cn(C)nc34)cc(F)c2n1 [Compound 288, 4-[(3R)-3-(cyclopropylamino)-pyr-rolidin-1-yl]-N-(8-fluoro-2-methyl-imidazo[1,2-a]pyridin-6-yl)-6-hydroxy-2-methyl-indazole-7-carboxamide] | 100 to 1000 nM | < 100 nM | < 100 nM | > 10 µM | > 10 µM | > 10 µM | < 100 nM | < 100 nM |
| Cn1cc2cc(NC(=O)c3c(O)cc(N4CC[C@@H](NC5CC5)C4)c4cn(C)nc34)cc(F)c2n1 [Compound 291, 4-[(3R)-3-(cyclopropylamino)pyrrolidin-1-yl]-N-(7-fluoro-2-methyl-indazol-5-yl)-6-hydroxy-2-methyl-indazole-7-carboxamide] | 100 to 1000 nM | < 100 nM | < 100 nM | 1 to 10 µM | 1 to 10 µM | > 10 µM | < 100 nM | < 100 nM |
| CCN[C@@H]1CCN(c2cc(O)c(C(=O)Nc3cc(F)c4nn(C)cc4c3)c3nn(C)cc23)C1 [Compound 294, 4-[(3R)-3-(ethylamino)-pyrrolidin-1-yl]-N-(7-fluoro-2-methyl-indazol-5-yl)-6-hydroxy-2-methyl-indazole-7-carboxamide] | 100 to 1000 nM | < 100 nM | < 100 nM | 0.1 to 1 µM | 1 to 10 µM | 1 to 10 µM | < 100 nM | < 100 nM |
| Cc1cn2cc(NC(=O)c3ccc(N4CCC(NC5CC5)CC4)c4cn(C)nc34)nc2c(C)n1 [Compound 297, 4-[4-(cyclopropylamino)-1-piperidyl]-N-(6,8-dimethylimidazo[1,2-a]pyrazin-2-yl)-2-methyl-indazole-7-carboxamide] | 1000 to 10000 nM | 100 to 1000 nM | < 100 nM | > 10 µM | > 10 µM | > 10 µM | 100 to 1000 nM | 1000 to 10000 nM |
